Patent US11661426B2, “Imidazole-containing inhibitors of ALK2 kinase” (BioCryst Pharmaceuticals, Inc., priority 2017, dated 2023)

Biological target: ALK2 (Homo sapiens (Human), UniProt Q04771)
Assay: ALK2 inhibition, LanthaScreen Eu Kinase Binding Assay (ThermoFisher Scientific / Life Technologies)
Details: read-out: Measured Ki (IC50) Value for Compounds: IC50
Procedure: Biochemical assays to measure the inhibitory effects of the compounds were performed by ThermoFisher Scientific (Life Technologies). ALK2 inhibition was tested using LanthaScreen™ Eu Kinase Binding Assay screening protocol.

ALK2, sequence (Q04771 21-509): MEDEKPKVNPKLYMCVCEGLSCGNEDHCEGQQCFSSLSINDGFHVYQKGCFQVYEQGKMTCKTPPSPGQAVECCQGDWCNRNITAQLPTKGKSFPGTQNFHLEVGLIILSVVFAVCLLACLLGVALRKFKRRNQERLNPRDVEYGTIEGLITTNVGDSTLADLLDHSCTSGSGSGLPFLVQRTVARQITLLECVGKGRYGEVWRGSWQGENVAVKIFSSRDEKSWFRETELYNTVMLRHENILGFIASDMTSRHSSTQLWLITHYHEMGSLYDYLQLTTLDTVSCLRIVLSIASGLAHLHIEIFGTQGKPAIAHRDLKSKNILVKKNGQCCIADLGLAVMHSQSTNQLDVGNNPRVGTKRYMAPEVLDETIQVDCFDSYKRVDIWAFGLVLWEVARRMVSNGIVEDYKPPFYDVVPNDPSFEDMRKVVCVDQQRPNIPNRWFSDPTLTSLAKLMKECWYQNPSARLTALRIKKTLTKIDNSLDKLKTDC

| Structure (SMILES) | IC50 [µM] |
| --- | --- |
| COc1cc(-n2cnc(Nc3nc(N4CCC[C@H]4CO)nc4c3CN(C(C)C)C4=O)c2)cc(OC)c1OC [Compound 274c, (S)-2-(2-(hydroxymethyl)pyrrolidin-1-yl)-6-isopropyl-4-((1-(3,4,5-trimethoxyphenyl)-1H-imidazol-4-yl)amino)-5H-pyrrolo[3,4-d]pyrimidin-7(6H)-one] | < 0.1 |
| COc1cc(-n2cnc(Nc3nc4c(c(N5CCC[C@H]5C(N)=O)n3)CCNC4)c2)cc(OC)c1OC [Compound 194c, (S)-1-(2-((1-(3,4,5-trimethoxyphenyl)-1H-imidazol-4-yl)amino)-5,6,7,8-tetrahydropyrido[3,4-d]pyrimidin-4-yl)pyrrolidine-2-carboxamide] | < 0.1 |
| COc1cc(-n2cnc(Nc3nc(N4CCC(F)(F)C4)nc4ccoc34)c2)cc(OC)c1OC [Compound 260a, 2-(3,3-difluoropyrrolidin-1-yl)-N-(1-(3,4,5-trimethoxyphenyl)-1H-imidazol-4-yl)furo[3,2-d]pyrimidin-4-amine] | < 0.1 |
| CNC(=O)[C@@H]1CCCN1c1nc(Nc2cn(-c3cc(OC)c(OC)c(OC)c3)cn2)c2occc2n1 [Compound 252a, (S)—N-methyl-1-(4-((1-(3,4,5-trimethoxyphenyl)-1H-imidazol-4-yl)amino)furo[3,2-d]pyrimidin-2-yl)pyrrolidine-2-carboxamide] | < 0.1 |
| COc1cc(-n2cnc(Nc3nc(N4CCC[C@@H]4CO)c4c(C)nn(C5CCC5)c4n3)c2)cc(OC)c1OC [Compound 460d, (R)-(1-(1-cyclobutyl-3-methyl-6-((1-(3,4,5-trimethoxyphenyl)-1H-imidazol-4-yl)amino)-1H-pyrazolo[3,4-d]pyrimidin-4-yl)pyrrolidin-2-yl)methanol] | < 0.1 |
| COc1cc(-n2cnc(Nc3nc(N4CCC[C@H]4C(N)=O)c4ccn(S(=O)(=O)c5ccc(C)cc5)c4n3)c2)cc(OC)c1OC [Compound 173b, (S)-1-(7-tosyl-2-((1-(3,4,5-trimethoxyphenyl)-1H-imidazol-4-yl)amino)-7H-pyrrolo[2,3-d]pyrimidin-4-yl)pyrrolidine-2-carboxamide] | > 1 |
| COc1cc(-n2cnc(Nc3nc(N4CC[C@@H](CO)C4)c4cccn4n3)c2)cc(OC)c1OC [Compound 283b, (R)-(1-(2-(1-(3,4,5-trimethoxyphenyl)-1H-imidazol-4-ylamino)pyrrolo[1,2-f][1,2,4]triazin-4-yl)pyrrolidin-3-yl)methanol] | < 0.1 |
| COc1cc(-n2cnc(Nc3nc(N4CCC[C@H]4CO)c4cnn(C)c4n3)c2)cc(OC)c1OC [Compound 338b, (S)-(1-(1-methyl-6-((1-(3,4,5-trimethoxyphenyl)-1H-imidazol-4-yl)amino)-1H-pyrazolo[3,4-d]pyrimidin-4-yl)pyrrolidin-2-yl)methanol] | < 0.1 |
| COc1cc(-c2ccc(Nc3nc(N4CCC[C@H]4C(N)=O)nc4ccccc34)nc2)cc(OC)c1OC [Compound 371a, (S)-1-(4-((5-(3,4,5-trimethoxyphenyl)pyridin-2-yl)amino)quinazolin-2-yl)pyrrolidine-2-carboxamide] | > 1 |
| COc1cc(-c2cnc(Nc3nc(N4CCC[C@H]4CO)nn4cccc34)s2)cc(OC)c1OC [Compound 461c, (S)-(1-(4-((5-(3,4,5-trimethoxyphenyl)thiazol-2-yl)amino)pyrrolo[2,1-f][1,2,4]triazin-2-yl)pyrrolidin-2-yl)methanol] | < 0.1 |
| COc1cc(-n2cnc(Nc3nc(N4CCC[C@H]4CO)nc4cc[nH]c34)c2)cc(OC)c1OC [Compound 160d, (S)-(1-(4-((1-(3,4,5-trimethoxyphenyl)-1H-imidazol-4-yl)amino)-5H-pyrrolo[3,2-d]pyrimidin-2-yl)pyrrolidin-2-yl)methanol] | < 0.1 |
| COc1cc(-n2cnc(Nc3nc(N4CCC[C@H]4C(N)=O)c4occc4n3)c2)cc(OC)c1OC [Compound 151b, (S)-1-(2-((1-(3,4,5-trimethoxyphenyl)-1H-imidazol-4-yl)amino)furo[3,2-d]pyrimidin-4-yl)pyrrolidine-2-carboxamide] | 0.1 to 1 |
| COc1cc(-n2cnc(Nc3nc(N4CCC[C@H]4C(N)=O)c4ccsc4n3)c2)cc(OC)c1OC [Compound 132b, (S)-1-(2-((1-(3,4,5-trimethoxyphenyl)-1H-imidazol-4-yl)amino)thieno[2,3-d]pyrimidin-4-yl)pyrrolidine-2-carboxamide] | < 0.1 |
| COc1cc(-n2cnc(Nc3nc(N4CCC[C@H]4CO)c4cccc(CN5CCCCC5)c4n3)c2)cc(OC)c1OC [Compound 335d, (S)-(1-(8-(piperidin-1-ylmethyl)-2-((1-(3,4,5-trimethoxyphenyl)-1H-imidazol-4-yl)amino)quinazolin-4-yl)pyrrolidin-2-yl)methanol] | < 0.1 |
| OC[C@@H]1CCCN1c1nc(Nc2cn(-c3ccccc3)cn2)nn2cccc12 [Compound 172a, (S)-(1-(2-((1-phenyl-1H-imidazol-4-yl)amino)pyrrolo[2,1-f][1,2,4]triazin-4-yl)pyrrolidin-2-yl)methanol] | 0.1 to 1 |
| COc1cc(-n2cnc(Nc3nc(N4CCC[C@H]4CO)c4cc[nH]c4n3)c2)cc(OC)c1OC [Compound 159c, (S)-(1-(2-((1-(3,4,5-trimethoxyphenyl)-1H-imidazol-4-yl)amino)-7H-pyrrolo[2,3-d]pyrimidin-4-yl)pyrrolidin-2-yl)methanol] | < 0.1 |
| c1ccc(C2CCCN2c2nc(Nc3cn(C4CCCC4)cn3)c3cccn3n2)nc1 (stereo not drawn) [Compound 69a, N-(1-cyclopentyl-1H-imidazol-4-yl)-2-(2-(pyridin-2-yl)pyrrolidin-1-yl)pyrrolo[2,1-f][1,2,4]triazin-4-amine] | < 0.1 |
| COc1cc(-n2cnc(Nc3nc(N4CCC[C@H]4CO)c4c(C)nn([C@H]5C[C@H](N)C5)c4n3)c2)cc(OC)c1OC [Compound 445c, ((S)-1-(1-((trans)-3-aminocyclobutyl)-3-methyl-6-((1-(3,4,5-trimethoxyphenyl)-1H-imidazol-4-yl)amino)-1H-pyrazolo[3,4-d]pyrimidin-4-yl)pyrrolidin-2-yl)methanol] | < 0.1 |
| COc1cc(-n2cnc(Nc3nc(N4CCC[C@H]4CO)nc4c3cnn4C)c2)cc(OC)c1OC [Compound 336c, (S)-(1-(1-methyl-4-((1-(3,4,5-trimethoxyphenyl)-1H-imidazol-4-yl)amino)-1H-pyrazolo[3,4-d]pyrimidin-6-yl)pyrrolidin-2-yl)methanol] | < 0.1 |
| Cc1cc(OC(F)(F)F)cc(-n2cnc(Nc3nc(N4CCC[C@H]4CO)c4cccn4n3)c2)c1 [Compound 263d, (S)-(1-(2-((1-(3-methyl-5-(trifluoromethoxy)phenyl)-1H-imidazol-4-yl)amino)pyrrolo[2,1-f][1,2,4]triazin-4-yl)pyrrolidin-2-yl)methanol] | > 1 |
| Cc1csc2c(Nc3cn(-c4ccccc4)cn3)nc(N3CCC[C@H]3CO)nc12 [Compound 41c, (S)-(1-(7-methyl-4-((1-phenyl-1H-imidazol-4-yl)amino)thieno[3,2-d]pyrimidin-2-yl)pyrrolidin-2-yl)methanol] | < 0.1 |
| COc1cc(-n2cnc(Nc3nc4c(c(N5CCC[C@@H]5CO)n3)CCCC4)c2)cc(OC)c1OC [Compound 264b, (R)-(1-(2-((1-(3,4,5-trimethoxyphenyl)-1H-imidazol-4-yl)amino)-5,6,7,8-tetrahydroquinazolin-4-yl)pyrrolidin-2-yl)methanol] | < 0.1 |
| COc1cc(-n2cnc(Nc3nc(N4CCC[C@H]4CO)c4ccc(-c5cccc(NC(C)=O)c5)cc4n3)c2)cc(OC)c1OC [Compound 364b, (S)—N-(3-(4-(2-(hydroxymethyl)pyrrolidin-1-yl)-2-((1-(3,4,5-trimethoxyphenyl)-1H-imidazol-4-yl)amino)quinazolin-7-yl)phenyl)acetamide] | < 0.1 |
| COc1cc(-n2cnc(Nc3nc(-c4cccc(C=O)c4)nn4cccc34)c2)cc(OC)c1OC [Compound 110a, 3-(4-((1-(3,4,5-trimethoxyphenyl)-1H-imidazol-4-yl)amino)pyrrolo[2,1-f][1,2,4]triazin-2-yl)benzaldehyde] | < 0.1 |
| COc1cc(-n2cnc(Nc3ncnn4cccc34)c2)cc(OC)c1OC [Compound 187b, N-(1-(3,4,5-trimethoxyphenyl)-1H-imidazol-4-yl)pyrrolo[2,1-f][1,2,4]triazin-4-amine] | < 0.1 |
| OC[C@@H]1CCCN1c1nc(Nc2cn([C@H]3CC[C@H](O)CC3)cn2)c2cccn2n1 [Compound 470e, (trans)-4-(4-((2-((S)-2-(hydroxymethyl)pyrrolidin-1-yl)pyrrolo[2,1-f][1,2,4]triazin-4-yl)amino)-1H-imidazol-1-yl)cyclohexanol] | 0.1 to 1 |
| COc1cc(-n2cnc(Nc3nc(N4CCC[C@H]4C(N)=O)nc4sc(CN5CCOCC5)cc34)c2)cc(OC)c1OC [Compound 407b, (S)-1-(6-(morpholinomethyl)-4-((1-(3,4,5-trimethoxyphenyl)-1H-imidazol-4-yl)amino)thieno[2,3-d]pyrimidin-2-yl)pyrrolidine-2-carboxamide] | < 0.1 |
| COc1cc(-n2cnc(Nc3nc(N4CCC[C@H]4C(N)=O)nc4cnn(C)c34)c2)cc(OC)c1OC [Compound 253c, (S)-1-(1-methyl-7-((1-(3,4,5-trimethoxyphenyl)-1H-imidazol-4-yl)amino)-1H-pyrazolo[4,3-d]pyrimidin-5-yl)pyrrolidine-2-carboxamide] | > 1 |
| OC[C@@H]1CCCN1c1nc(Nc2cn(-c3cn(C4CCCC4)cn3)cn2)c2cccn2n1 [Compound 451d, (S)-(1-(4-((1′-cyclopentyl-1′H-[1,4′-biimidazol]-4-yl)amino)pyrrolo[2,1-f][1,2,4]triazin-2-yl)pyrrolidin-2-yl)methanol] | 0.1 to 1 |
| COc1cc(OC)cc(-n2cnc(Nc3nc(N4CCC[C@H]4CO)c4cccn4n3)c2)c1 [Compound 242a, (S)-(1-(2-((1-(3,5-dimethoxyphenyl)-1H-imidazol-4-yl)amino)pyrrolo[2,1-f][1,2,4]triazin-4-yl)pyrrolidin-2-yl)methanol] | 0.1 to 1 |
